Results from ChEMBL document CHEMBL1127245, “The effect of heteroatom substitution on a series of phosphonate inhibitors of neutral endopeptidase 24.11” (Bioorg Med Chem Lett, 1994).

Target: T1, Neprilysin (Rattus norvegicus, UniProt P07861)
T1 sequence (P07861 whole entry): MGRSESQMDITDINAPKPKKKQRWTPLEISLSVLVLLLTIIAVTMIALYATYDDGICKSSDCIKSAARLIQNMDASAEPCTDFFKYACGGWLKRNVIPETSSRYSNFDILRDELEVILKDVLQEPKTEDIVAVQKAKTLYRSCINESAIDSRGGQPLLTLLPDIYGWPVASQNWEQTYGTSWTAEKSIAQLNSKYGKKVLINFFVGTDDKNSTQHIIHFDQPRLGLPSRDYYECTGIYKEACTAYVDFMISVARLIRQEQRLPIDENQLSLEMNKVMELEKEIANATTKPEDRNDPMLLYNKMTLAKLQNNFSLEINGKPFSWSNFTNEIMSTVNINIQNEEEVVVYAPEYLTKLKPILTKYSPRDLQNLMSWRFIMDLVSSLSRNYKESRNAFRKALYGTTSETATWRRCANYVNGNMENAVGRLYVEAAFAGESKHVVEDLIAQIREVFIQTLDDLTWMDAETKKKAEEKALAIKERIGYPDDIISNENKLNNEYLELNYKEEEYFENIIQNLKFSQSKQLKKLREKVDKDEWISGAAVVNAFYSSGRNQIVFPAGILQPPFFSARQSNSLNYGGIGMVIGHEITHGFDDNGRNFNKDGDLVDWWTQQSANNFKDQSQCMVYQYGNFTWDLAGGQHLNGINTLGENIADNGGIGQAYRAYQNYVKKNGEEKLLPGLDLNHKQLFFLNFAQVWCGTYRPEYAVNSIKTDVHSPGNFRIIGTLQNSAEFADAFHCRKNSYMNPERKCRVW
Experiment: In vitro inhibitory activity against neutral endopeptidase (NEP 24.11) from rat kidney cortex membranes

O=C(O)CCNC(=O)[C@H](Cc1ccc(-c2ccccc2)cc1)NCP(=O)(O)O
IC50: 1.6 nM

O=C(O)CCNC(=O)C(Cc1ccc(-c2ccccc2)cc1)OCP(=O)(O)O (stereo not given)
IC50: 9.5 nM

O=C(O)CCNC(=O)C(CCP(=O)(O)O)Cc1ccc(-c2ccccc2)cc1 (stereo not given)
IC50: 1000 nM

O=C(O)CCNC(=O)C(Cc1ccc(-c2ccccc2)cc1)SCP(=O)(O)O (stereo not given)
IC50: 797 nM

O=C(O)CCNC(=O)C(Cc1ccc(-c2ccccc2)cc1)S(=O)(=O)CP(=O)(O)O (stereo not given)
IC50: > 10000 nM
